The assay relates to P. falciparum 3D7 growth, pLDH absorbance. In words: P. falciparum 3D7 growth inhibition, dose response, strain 3D7 (AID 2305).

SMILES strings stand for the structures. “And” between values parts separate entries of the source, which are not always exact repeats. Equal values may be shown once.

Turning to `COc1cccc(C=NNc2cc(C)nc3ccccc23)c1`, the IC50 (usually the concentration that inhibits the measured activity by half) was determined as 940 nM. In other words, the sub-micromolar range.

In turn, `CCc1cccc2c(C#N)cn(CC(=O)NCCc3ccccc3)c12` registered an IC50 of 890 nM.

As to `Cc1nn(-c2ccccc2)nc1C(=O)NC1CCN(CCNC(=O)c2ccc(Cl)c(Cl)c2)CC1`, the IC50 stood at 870 nM.

On to `CCCc1ccc(NC(=O)c2cccc(CN3CCCN(Cc4cccc(O)c4)CC3)c2)cc1`, for which the IC50 is 750 nM.

In turn, `Fc1ccc(OC2CN(c3nccc(NCc4ccccc4Cl)n3)C2)cc1` displayed an IC50 of 900 nM. The IC50 values of the last two compounds are within 1.5-fold of each other.

In turn, `COc1ccccc1C1CCN(C2CCC(NC(=O)c3cc4ccccc4[nH]3)CC2)CC1` (centres undefined) displayed an IC50 of 1210 nM.

For `CC(C)C[C@@H](/C=N/N1CCOC1=O)NC(=O)[C@H](CC(C)C)NC(=O)c1ccc(F)cc1`, the IC50 is 1170 nM.

Consider `CCc1nc2nc(C)cc(Nc3cc(C)cc(C)c3)n2n1`, for which the IC50 stood at 290 nM.

The compound `COc1ccc2nccc([C@@H](O)CN3CCC(NC(=O)c4ccc(C5(C(F)(F)F)N=N5)cc4)CC3)c2c1` had an IC50 of 930 nM.

With `O=C(NC1CCN(c2ccnc3cc(Cl)ccc23)C1)c1ccc(C(F)(F)F)cc1` (centres undefined), the IC50 is 140 nM.

With `Cc1ccc(NC(=O)Nc2cccc(Cl)c2)cc1-c1ccc(C(=O)Nc2ccncc2)cc1`, the IC50 was determined as 740 nM. Against the preceding compound, the IC50 is about 5.3-fold higher.

For `O=C(Nc1cccnc1)c1cc(-c2cccnc2)nc2ccc(Br)cc12`, the IC50 was determined as 640 nM.

`O=C(/C=C/c1ccc(Cl)c(Cl)c1)NCCCCCN1CCC(NC(=S)Nc2ccc(Cl)c(Cl)c2)CC1` gave a 50% inhibitory concentration (IC50) of 530 nM.

Regarding `O=C(Nc1ccc([N+](=O)[O-])cc1)Nc1nc2ccc(Cl)cc2s1`, the IC50 amounted to 840 nM.

Consider `CCN(CCCN1CCCCC1)c1cc(C)nc(Nc2cccc(OC(F)(F)F)c2)n1`, for which the IC50 was found to be 230 nM.

Regarding `c1ccc(CN2CCC(NCc3cccc(-c4cncc5ccccc45)c3)CC2)cc1`, the IC50 came to 1360 nM.

For `C/C=C1\CN2CC[C@H]1C[C@H]2[C@H](O)c1ccnc2ccc(O)cc12`, the IC50 amounted to 600 nM.

As for `Cc1nc(-c2cccc(C(=O)Nc3cnc4ccccc4c3)c2)no1`, the IC50 was 1160 nM. This IC50 is about 1.9-fold higher than that of the compound before.

`Cc1ccc(S(=O)(=O)N(CCCN2CCN(C)CC2)Cc2csc(-c3ccc(CNCc4ccccc4)cc3)n2)cc1` registered an IC50 of 840 nM.

`CCn1cc(C=C2Oc3c(ccc(O)c3CN3CCCCC3C)C2=O)c2ccccc21` (centres undefined) gave an IC50 of 1020 nM. This IC50 and that of the compound before are within 1.5-fold of each other.

`Nc1ccc(-c2csc(Nc3ccncc3)n2)cc1` returned an IC50 of 940 nM.

In turn, `CCNc1cc(C(=O)N[C@@H](Cc2ccccc2)[C@H](O)CNC23CCC(CC2)C3)cc(N2CCCCS2(=O)=O)c1` yielded an IC50 of 30 nM.

`Fc1cccc(C=NNc2ccnc3cc(Cl)ccc23)c1` returned an IC50 of 530 nM.

`O=C(CC(=O)C(F)(F)F)c1ccc2c(c1)OCO2` gave an IC50 of 740 nM. This IC50 and that of the compound before are within 1.5-fold of each other.

On to `Cc1cc(N(C)C)nc(Nc2ccc(NC(=O)c3ccc(F)cc3)cc2)n1`, for which the IC50 worked out at 710 nM.

`O=C(Cc1ccc(NC(=O)c2ccc(O)c(-c3ccc(Cl)c(Cl)c3)c2)cc1)NCCN1CCCCC1` yielded an IC50 of 840 nM.

For the compound `CSc1nccc(-c2ccc(S(=O)(=O)NC3CCC(CN4CCC(c5c[nH]c6ccccc56)CC4)CC3)s2)n1` (centres undefined), the IC50 is 250 nM and 810 nM.

`Cn1cnc(-c2ccc3c(c2)CCN(CCC2CCC(NC(=O)/C=C/c4ccc(F)cc4)CC2)CC3)c1` (centres undefined) returned an IC50 of 900 nM.

Turning to `Cc1[nH]c(C)c(-c2ccc(S(=O)(=O)c3ccc(Cl)cc3)cc2)c(=O)c1Cl`, the IC50 is 140 nM. This IC50 lies about 6.4-fold lower than the previous one.

`N#Cc1ccc(CN2CCCN(Cc3cccc(NC(=O)c4ccc(Cl)c(Cl)c4)c3)CC2)cc1` gave an IC50 of 850 nM.

As for `CCNc1cc(C(=O)N[C@@H](Cc2ccc(Cl)cc2)[C@H](O)CNC2CCCCC2)cc(N2CCCCS2(=O)=O)c1`, the IC50 is 150 nM.

`COc1cc(NC(=O)c2cccs2)c(C(=O)NCc2ccc(C)cc2)cc1OC` showed an IC50 of 1360 nM.

As to `N#Cc1cccc(NC(=O)C2=C(CCc3ccc4c(c3)OCO4)NC(=O)NC2c2cccc(C#N)c2)c1` (centres undefined), the IC50 came out at 830 nM.

Consider `N#Cc1cccc(Nc2nccc(NCC(O)c3ccc(C(F)(F)F)cc3)n2)c1` (centres undefined), for which the IC50 was determined as 560 nM.

`NCCCCNc1cc(-c2ccnc(Nc3cccc(Cl)c3)n2)ccn1` gave an IC50 of 280 nM.

In turn, `Cc1cccc(NC(=O)c2ccc(C(=O)NC3CCN(CC4CCCCC4)C3)cc2)c1` (centres undefined) came in with an IC50 of 920 nM.

In turn, `Cc1cc(NCCC(=O)NCc2cccc(F)c2)nc(Nc2ccccc2)n1` displayed an IC50 of 1050 nM.

`Oc1cc2c(cc1CN1CCN(Cc3cccs3)CC1)CCC2` came in with an IC50 of 840 nM.

Regarding `CCOC(=O)CCCOc1cc(Cc2cnc(N)nc2N)cc(OC)c1OC`, the IC50 came to 240 nM.

`O=C(Nc1ccc(Cl)cc1)Nc1cccc(-c2ccc(-c3nc4ccccc4[nH]3)cc2)c1` showed an IC50 of 930 nM.

Compound `Cc1cc(=O)c(-c2ccc(Oc3ccc(F)cc3)cc2)c(C)[nH]1` displayed an IC50 of 970 nM.

As to `CC[C@@H]([C@@H](CC(C)C)C(=O)N[C@@H](CCCCNC(=O)OCc1ccccc1)C(=O)Nc1ccccn1)N(O)C=O`, the IC50 is 110 nM.

As to `Cc1cc(Nc2ccncc2)n2nc(C)c(-c3ccccc3Cl)c2n1`, the IC50 turned out to be 650 nM. Against the preceding compound, the IC50 is about 5.9-fold higher.

As to `COc1ccc(C[C@H](C)NC[C@H](O)c2cccc(Cl)c2)cc1F`, the IC50 came out at 990 nM.

For the origin of these results see PubChem BioAssay AID2305 (GlaxoSmithKline (GSK), 2010).
